The source of these data is ChEMBL document CHEMBL6103619, “Discovery of a Novel CRBN-Recruiting cGAS PROTAC Degrader for the Treatment of Ulcerative Colitis” (J Med Chem, 2025).

In general, AUC(0-inf) refers to total exposure, with the tail of the curve extrapolated. Read a low AUC(0-inf) as low exposure. Usually clearance stands for the volume of plasma or blood freed of the substance per unit of time. A low value points to a low capacity for elimination. For orientation: AUC(0-t) means the area under the concentration-time curve up to a stated or last time point. For orientation: half-life means the time needed for the level to fall by half in the phase considered. Lower therefore signals rapid decline.

Series [1] relates to THP-1. Briefly: Downregulation of IFNB mRNA expression level in poly(I:C)-induced human THP-1 cells at 20 uM preincubated with compound for 12 hrs followed by poly(I:C) addition and measured after 8 hrs by RT-qPCR analysis. It counts as functional, cell-based. Particulars: time 20.0 hrs. A general note: In qPCR the cycle at which signal appears reflects the starting amount.

Series [2] addresses T1, Protein cereblon/Cyclic GMP-AMP synthase (Homo sapiens, UniProt Q96SW2+Q8N884). The series can be described thus: PROTAC activity at CRBN/cGAS in human THP-1 cells assessed as induction of cGAS degradation at 10 uM preincubated with MG132 for 2 hrs followed by compound addition and measured after 48 hrs by Western blot analysis. It counts as cell-based.
Series [3] in a line: AUC (0 to infinity) in male C57BL/6 mouse at 1 mg/kg, iv measured after 24 hrs by LC-MS/MS analysis. Type of series: ADME, organism-based. The note with it: in vivo.
For series [4], the system named is THP1-Lucia ISG. Briefly: Potency index, ratio of 1-(6,7-dichloro-9-(1-methyl-1H-pyrazol-3-yl)-1,3,4,5-tetrahydro-2H-pyrido[4,3-b]indol-2-yl)-2-hydroxyethan-1-one IC50 to test compound IC50 for inhibition of dsDNA-induced cGAS signaling pathway in human THP1-Lucia ISG cells preincubated with compound for 24 hrs followed by HT-DNA addition and measured after 24 hrs by QUANTI-Luc luciferase reagent based assay. Particulars: time 48.0 hrs. It counts as cell-based.

Series [5] can be described thus: Clearance in male C57BL/6 mouse at 1 mg/kg, iv measured after 24 hrs by LC-MS/MS analysis. Type of series: ADME, organism-based. The note with it: in vivo.
Series [6] deals with THP-1. The series can be described thus: Downregulation of IFNB mRNA expression level in HSV-1-induced human THP-1 cells at 20 uM preincubated with compound for 12 hrs followed by HSV1 addition and measured after 8 hrs by RT-qPCR analysis. Type of series: functional, cell-based. The note with it: time 20.0 hrs.
In series [7] the test system is Mus musculus. Briefly: Anti-inflammatory activity in DSS-induced ulcerative colitis C57BL/6 mouse model assessed as reduction in NET generation by measuring reduction in citH3 level in colon at 20 to 50 mg/kg/day, ip preadministered with DSS for 7 days followed by replacement with ultrapure water for 3 days with subsequent compound administration starting from day 4 to 10 and measured on day 11 by Western blot analysis. It counts as functional, organism-based. Particulars: dose 20-50 mg/kg/day, time 8.0 day.

Series [8] can be described thus: Cytotoxicity against mouse RAW-Lucia ISG cells assessed as reduction in cell viability upto 60 uM incubated for 48 hrs by CCK8 assay. Type of series: toxicity, cell-based. For orientation: Tetrazolium dyes change colour on reduction, which living cells bring about.
Series [9] has as its system Mus musculus. The series can be described thus: Anti-inflammatory activity in DSS-induced ulcerative colitis C57BL/6 mouse model assessed as […] at 20 to 50 mg/kg/day, ip preadministered with DSS for 7 days followed by replacement with ultrapure water for 3 days with subsequent compound administration starting from day 4 to 10 and measured on day 11. It counts as functional, organism-based. Particulars: dose 20-50 mg/kg/day, time 8.0 day.

Series [10] in a line: AUC (0 to 24 hrs) in male C57BL/6 mouse at 20 mg/kg, ip measured after 24 hrs by LC-MS/MS analysis. Type of series: ADME, organism-based. The note with it: in vivo.
Series [11] in a line: Downregulation of cGAS protein level in human THP-1 cells at 10 uM incubated for 48 hrs by MS-based LFQ whole proteome analysis relative to control. It counts as functional.
The test system of series [12] is Mus musculus. Briefly: Anti-inflammatory activity in DSS-induced ulcerative colitis C57BL/6 mouse model assessed as reduction in histopathological score of colon at 20 to 50 mg/kg/day, ip preadministered with DSS for 7 days followed by replacement with ultrapure water for 3 days with subsequent compound administration starting from day 4 to 10 and measured on day 11. Particulars: dose 20-50 mg/kg/day, time 8.0 day. It counts as functional, organism-based.

For series [13], the system named is RAW-Lucia ISG. Briefly: Potency index, ratio of 1-(6,7-dichloro-9-(1-methyl-1H-pyrazol-3-yl)-1,3,4,5-tetrahydro-2H-pyrido[4,3-b]indol-2-yl)-2-hydroxyethan-1-one IC50 to test compound IC50 for inhibition of dsDNA-induced cGAS signaling pathway in mouse RAW-Lucia ISG cells preincubated with compound for 24 hrs followed by HT-DNA addition and measured after 24 hrs by QUANTI-Luc luciferase reagent based assay. It counts as cell-based. Particulars: time 48.0 hrs.

Series [14] has as its system Mus musculus. The series can be described thus: Anti-inflammatory activity in DSS-induced ulcerative colitis C57BL/6 mouse model assessed as reduction in IFNB mRNA level in colon at 20 to 50 mg/kg/day, ip preadministered with DSS for 7 days followed by replacement with ultrapure water for 3 days with subsequent compound administration starting from day 4 to 10 and measured on day 11 by qRT-PCR analysis. Type of series: functional, organism-based. Particulars: dose 20-50 mg/kg/day, time 8.0 day.

Series [15] concerns RAW264.7. Briefly: Cytotoxicity against mouse RAW264.7 cells assessed as reduction in cell viability at >30 uM incubated for 48 hrs by CCK8 assay. It counts as toxicity, cell-based. The note with it: raw264.7, 48 h.
The target of series [16] is T1, Protein cereblon/Cyclic GMP-AMP synthase. The series can be described thus: PROTAC activity at CRBN/cGAS in human THP-1 cells assessed as induction of cGAS degradation at 10 uM preincubated with compound for 40 hrs followed by HT-DNA stimulation and measured after 8 hrs by Western blot analysis relative to control. Type of series: cell-based. Particulars: time 48.0 hrs.

A short description of series [17]: Half-life in male C57BL/6 mouse at 20 mg/kg, ip measured after 24 hrs by LC-MS/MS analysis. It counts as ADME, organism-based. Particulars: in vivo.
A short description of series [18]: Half-life in male C57BL/6 mouse at 1 mg/kg, iv measured after 24 hrs by LC-MS/MS analysis. Type of series: ADME, organism-based. Particulars: in vivo.
Series [19] can be described thus: Cytotoxicity against human THP1-Lucia ISG cells assessed as reduction in cell viability at >30 uM incubated for 48 hrs by CCK8 assay. Type of series: toxicity, cell-based.
The subject of series [20] is THP-1. The series can be described thus: Downregulation of IFNB mRNA expression level in HT-DNA-induced human THP-1 cells at 20 uM preincubated with compound for 12 hrs followed by HT-DNA addition and measured after 8 hrs by RT-qPCR analysis. Type of series: functional, cell-based. The note with it: time 20.0 hrs.
For series [21], the system named is RAW264.7. The series can be described thus: Inhibition of ds-DNA induced cGAS-STING signaling pathway in mouse RAW264.7 cells assessed as reduction in TBK1 phosphorylation preincubated with compound for 40 hrs followed by HT-DNA addition and measured after 8 hrs by Western blot analysis. It counts as cell-based. The note with it: dose 0.7-20 µM, time 48.0 hrs. A general note: Immunoblotting shows a protein as a band on a membrane.

Activity calls are given as the source filed them. Bounds are passed on as bounds.

T1 sequence (Q8N884 whole entry, looked up): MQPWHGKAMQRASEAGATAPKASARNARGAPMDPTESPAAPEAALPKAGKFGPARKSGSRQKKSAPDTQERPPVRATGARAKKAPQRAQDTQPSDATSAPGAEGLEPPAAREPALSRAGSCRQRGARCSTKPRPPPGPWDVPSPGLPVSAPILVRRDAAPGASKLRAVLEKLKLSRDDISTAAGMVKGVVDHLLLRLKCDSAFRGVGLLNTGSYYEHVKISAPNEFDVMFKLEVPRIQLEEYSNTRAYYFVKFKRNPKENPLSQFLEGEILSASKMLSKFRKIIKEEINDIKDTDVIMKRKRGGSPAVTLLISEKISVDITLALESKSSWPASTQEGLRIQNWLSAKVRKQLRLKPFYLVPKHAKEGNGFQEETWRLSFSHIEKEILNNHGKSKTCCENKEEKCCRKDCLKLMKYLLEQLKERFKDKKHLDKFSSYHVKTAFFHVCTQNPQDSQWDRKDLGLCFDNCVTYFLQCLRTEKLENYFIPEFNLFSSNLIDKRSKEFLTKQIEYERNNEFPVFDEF
T1 sequence (Q96SW2 whole entry, looked up): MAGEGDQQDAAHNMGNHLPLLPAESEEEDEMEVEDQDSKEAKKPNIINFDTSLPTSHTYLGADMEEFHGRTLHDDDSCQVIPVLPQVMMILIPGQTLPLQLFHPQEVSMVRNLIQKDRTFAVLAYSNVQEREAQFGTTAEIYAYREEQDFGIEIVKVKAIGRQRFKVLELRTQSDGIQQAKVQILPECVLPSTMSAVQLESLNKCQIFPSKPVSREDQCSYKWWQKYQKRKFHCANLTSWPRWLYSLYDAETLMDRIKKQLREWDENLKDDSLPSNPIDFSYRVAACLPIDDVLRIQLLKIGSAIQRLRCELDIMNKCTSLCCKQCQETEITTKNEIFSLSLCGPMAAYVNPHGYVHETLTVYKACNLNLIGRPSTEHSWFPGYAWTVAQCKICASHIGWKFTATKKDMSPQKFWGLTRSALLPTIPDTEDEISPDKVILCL

`Cn1ccc(-c2cc(Cl)c(Cl)c3[nH]c4c(c23)CN(C(=O)CNC(=O)CCCC#Cc2cccc3c2CN(C2CCC(=O)NC2=O)C3=O)CC4)n1` (stereo unspecified): the outcome in series [1] and in series [2] was inactive. Moreover, the area under the curve AUC(0-inf) in series [3] is 531 ng·h/mL. Moreover, the Ratio IC50 in series [4] and in [13] was 3 throughout. Also, the clearance in series [5] was 31.7 mL/min/kg. Besides, the result in series [6], in series [7], in [9], in [12], in series [14] and in [20] was Active. The Activity entry in series [8] is “Non-toxic”; in series [11], above 80%; in series [15], “Toxic”; in series [16] it was 78.9%; in [19], “Toxic”. This compound also registered an AUC(0-t) at 24 h in [10] of 2020 ng·h/mL. The figures for the half-life in series [17] and in series [18] were 13.7 h and 3 h, respectively. The inhibition entry in series [21] is “Dose-dependent-effect”.
